The Dmax is the greatest extent of degradation seen. A word on the DC50: it is the concentration giving 50% degradation.

Our source for the Dmax and DC50 values is patent US20250195513A1, “DEGRADATION OF IRAK4 BY CONJUGATION OF IRAK4 INHIBITORS WITH E3 LIGASE LIGAND AND METHODS OF USE” (BeiGene, Ltd., priority 2022, published 2025).

The target of experiment [1] is T1, IRAK4 (Homo sapiens, UniProt Q9NWZ3).
T1 construct: endogenous in cells; host or cells: Karpas299
T1 sequence (Q9NWZ3 1-460): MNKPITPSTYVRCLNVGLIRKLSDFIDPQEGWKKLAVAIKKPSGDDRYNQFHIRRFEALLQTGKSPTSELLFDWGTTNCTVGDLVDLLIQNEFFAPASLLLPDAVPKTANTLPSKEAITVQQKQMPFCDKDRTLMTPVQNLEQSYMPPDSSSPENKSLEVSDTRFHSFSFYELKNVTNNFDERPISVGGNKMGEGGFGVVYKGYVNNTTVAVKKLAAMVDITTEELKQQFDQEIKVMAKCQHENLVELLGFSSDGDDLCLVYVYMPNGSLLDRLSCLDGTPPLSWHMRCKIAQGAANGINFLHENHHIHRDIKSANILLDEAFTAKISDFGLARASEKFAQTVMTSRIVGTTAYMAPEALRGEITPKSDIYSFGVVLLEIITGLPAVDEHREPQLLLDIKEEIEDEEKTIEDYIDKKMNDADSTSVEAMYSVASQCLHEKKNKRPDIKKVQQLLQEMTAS
Description: IRAK4 Degradation Assay (Karpas299, HTRF/TR-FRET). Particulars: Karpas-299 cells; for Dmax: maximum percentage of degradation. The class given is cell-based. In outline: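 Compound potency as DC50 (IC50) came from four-parameter fits of percent IRAK4 degradation. IRAK4 was measured by HTRF (665/620 nm) in lysates of Karpas299 cells seeded at 0.2 million per well. Cells had been treated with compound dilutions for 5 or 24 h.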
(In general: Time-resolved FRET reads energy transfer from a long-lived donor to a nearby acceptor.)

Experiment [2] addresses T1, IRAK4. Nature of the experiment: IRAK4 Degradation Assay with Human Serum (Karpas299, HTRF/TR-FRET). Format: cell-based. As to conditions: Karpas-299 in human serum, 24 hrs treatment; for DC50: read-out: IRAK4 degradtion with human serum assay DC50; for Dmax: read-out: IRAK4 degradtion with human serum assay Dmax (%). As to the method: IRAK4 degradation was measured using a TR-FRET-based method (Degorce, François, et al. Current chemical genomics. 2009, 3: 22). Karpas299 resuspended in Human serum AB (GEMINI, 100-512) were seeded into 96-well plates at the density of 0.2 million cells per well and then treated with a series dilution of compounds. After 24 hrs treatment, cells were pelleted via centrifugation and washed with PBS, add 40 μL lysis buffer (Cisbio) to each well after removal of the supernatant. Plates were then incubated at room temperature with shaking for 30 minutes. A total of 16 μL of cell lysates from each well of a 96-well plate was transferred to a 384-well white assay plate. IRAK4 level was quantitated using the HTRF kit as described by the manufacturer manual (Cisbio). FRET signals were measured using a PHERAstar FSX reader (BMG Labtech).
After treatment, add HTRF lysis buffer to each well; seal the plate and incubate 1 hour at room temperature on a plate shaker; Once the cells are lysed, 16 μL of cell lysate are transferred to a PE 384-well HTRF detection plate; 4 μL of pre-mixed HTRF antibodies are added to each well; Cover the plate with a plate sealer, spin 1000 rpm for 1 min, Incubate overnight at room temperature; Read on BMG PheraStar with HTRF protocol (337 nm-665 nm-620 nm).
The inhibition (degradation) percentage of the compound was calculated by the following equation: […]
The IC50 (DC50) value of a compound can be obtained by fitting the following equation
Wherein, X and Y are known values, and IC50, Hillslope, Top and Bottom are the parameters obtained by fitting with software. Y is the inhibition percentage (calculated from the equation), X is the concentration of the compound; IC50 is the concentration of the compound when the […] is reached. The smaller the IC50 value is, the stronger the inhibitory ability of the compound is. Vice versa, the higher the IC50 value is, the weaker the ability the inhibitory ability of the compound is; Hillslope represents the slope of the fitted curve, generally around 1 *; Bottom represents the minimum value of the curve obtained by data fitting, which is generally 0%±20%; Top represents the maximum value of the curve obtained by data fitting, which is generally 100%±20%. The experimental data were fitted by calculating and analyzing with Dotmatics data analysis software.

The mark [3] stands for this setting: 24 h treatment, read-out: IRAK4 in Karpas-299 (24 h) Dmax (%).
[4] abbreviates: 24 h treatment, read-out: IRAK4 in Karpas-299 (24 h) DC50.

Turning to `CC(C)(O)c1cc2nn([C@H]3CC[C@H](N4C[C@@H]5CN(CC6CN(c7cc(F)c(C8CCC(=O)NC8=O)c(F)c7)C6)C[C@H]5C4)CC3)cc2cc1NC(=O)c1ccc2cc(C#N)cnn12` (stereo partly drawn) [Example 359, 3-cyano-N-(2-((1S,4r)-4-((3aS,6aS)-5-((1-(4-((R)-2,6-dioxopiperidin-3-yl)-3,5-difluorophenyl)azetidin-3-yl)methyl)hexahydropyrrolo[3,4-c]pyrrol-2(1H)-yl)cyclohexyl)-6-(2-hydroxypropan-2-yl)-2H-indazol-5-yl)pyrrolo[1,2-b]pyridazine-7-carboxamide], the values for the Dmax on IRAK4 [1] (setting [3]) and on IRAK4 [2] were 97% and 103%, respectively. The DC50 at IRAK4 [1] (setting [4]) came out at 2.4 nM; at IRAK4 [2] it was 4.2 nM.
The corresponding values for `C[C@@H]1CN(C(=O)C2CN(c3cc(F)c(N4CCC(=O)NC4=O)c(F)c3)C2)CCN1[C@H]1CC[C@H](n2cc3cc(NC(=O)c4ccc5cc(C#N)cnn45)c(C(C)(C)O)cc3n2)CC1` [Example 303, 3-cyano-N-(2-((1R,4r)-4-((R)-4-(1-(4-(2,4-dioxotetrahydropyrimidin-1(2H)-yl)-3,5-difluorophenyl)azetidine-3-carbonyl)-2-methylpiperazin-1-yl)cyclohexyl)-6-(2-hydroxypropan-2-yl)-2H-indazol-5-yl)pyrrolo[1,2-b]pyridazine-7-carboxamide] are 101%, 101%, 0.4 nM and 16 nM.
The matching figures for `CC(C)(O)c1cc2nn([C@H]3CC[C@H](N4CCN(C(=O)C5CCN(c6cc(F)c([C@H]7CCC(=O)NC7=O)c(F)c6)CC5)CC4)CC3)cc2cc1NC(=O)c1ccc2cc(C#N)cnn12` [Example 291]: 97%, 97%, 0.6 nM and 48 nM.
The corresponding values for `COC[C@@H]1CN(C2CN(c3cc(F)c([C@H]4CCC(=O)NC4=O)c(F)c3)C2)CCN1[C@H]1CC[C@H](n2cc3cc(NC(=O)c4ccc5cc(C#N)cnn45)c(C(C)(C)O)cc3n2)CC1` [Example 327, 3-cyano-N-(2-((1S,4r)-4-((S)-4-(1-(4-((R)-2,6-dioxopiperidin-3-yl)-3,5-difluorophenyl)azetidin-3-yl)-2-(methoxymethyl)piperazin-1-yl)cyclohexyl)-6-(2-hydroxypropan-2-yl)-2H-indazol-5-yl)pyrrolo[1,2-b]pyridazine-7-carboxamide] are 90%, 95%, 0.9 nM and 4.2 nM.
With `CC(C)(O)c1cc2nn([C@H]3CC[C@H](N4CCN(CC5CN(c6cc(F)c([C@H]7CCC(=O)NC7=O)c(F)c6)C5)CC4)CC3)cc2cc1NC(=O)c1coc2cccnc12` [Example 403, N-(2-((1r,4r)-4-(4-((1-(4-((R)-2,6-dioxopiperidin-3-yl)-3,5-difluorophenyl)azetidin-3-yl)methyl)piperazin-1-yl)cyclohexyl)-6-(2-hydroxypropan-2-yl)-2H-indazol-5-yl)furo[3,2-b]pyridine-3-carboxamide], the figures for the Dmax on IRAK4 [1] (setting [3]) and on IRAK4 [2] were 96% and 99%, respectively. Besides, the DC50 worked out at 0.7 nM on IRAK4 [1] (setting [4]) and 3.5 nM on IRAK4 [2].
The matching figures for `CC(C)(O)c1cc2nn([C@H]3CC[C@H](N4CCN(C5CCN(c6cc(F)c([C@H]7CCC(=O)NC7=O)c(F)c6)CC5)C[C@@H]4CO)CC3)cc2cc1NC(=O)c1ccc2cc(C#N)cnn12` [Example 399, 3-cyano-N-(2-((1R,4r)-4-((R)-4-(1-(4-((R)-2,6-dioxopiperidin-3-yl)-3,5-difluorophenyl)piperidin-4-yl)-2-(hydroxymethyl)piperazin-1-yl)cyclohexyl)-6-(2-hydroxypropan-2-yl)-2H-indazol-5-yl)pyrrolo[1,2-b]pyridazine-7-carboxamide]: 96%, 99%, 0.5 nM and 11 nM.
The matching figures for `CC(C)(O)c1cc2nn([C@H]3CC[C@H](N4CCN([C@H]5CCN(c6cc(F)c(C7CCC(=O)NC7=O)c(F)c6)C5)CC4)CC3)cc2cc1NC(=O)c1ccc2cc(C#N)cnn12` (stereo partly drawn) [Example 395, 3-cyano-N-(2-((1S,4r)-4-(4-((3S)-1-(4-(2,6-dioxopiperidin-3-yl)-3,5-difluorophenyl)pyrrolidin-3-yl)piperazin-1-yl)cyclohexyl)-6-(2-hydroxypropan-2-yl)-2H-indazol-5-yl)pyrrolo[1,2-b]pyridazine-7-carboxamide]: 97%, 99%, 0.8 nM and 21 nM.
For the molecule `CC(C)(O)c1cc2nn([C@H]3CC[C@H](N4CCN(C(=O)N5CCN(c6ccc(C7CCC(=O)NC7=O)cc6)CC5)CC4)CC3)cc2cc1NC(=O)c1ccc2cc(C#N)cnn12` (stereo partly shown) [Example 292, 3-cyano-N-(2-((1r,4r)-4-(4-(4-(4-(2,6-dioxopiperidin-3-yl)phenyl)piperazine-1-carbonyl)piperazin-1-yl)cyclohexyl)-6-(2-hydroxypropan-2-yl)-2H-indazol-5-yl)pyrrolo[1,2-b]pyridazine-7-carboxamide], the Dmax on IRAK4 [1] (setting [3]) was 94%; at IRAK4 [2], 95%. Moreover, the DC50 on IRAK4 [1] (setting [4]) stood at 1.8 nM; on IRAK4 [2], 37 nM.
Consider `COC[C@H]1CN([C@H]2CC[C@H](n3cc4cc(NC(=O)c5ccc6cc(C#N)cnn56)c(C(C)(C)O)cc4n3)CC2)CCN1CC1CCN(c2ccc3c(c2)CN(C2CCC(=O)NC2=O)C3=O)CC1` (stereo partly drawn) [Example 402, 3-cyano-N-(2-((1R,4r)-4-((3R)-4-((1-(2-(2,6-dioxopiperidin-3-yl)-1-oxoisoindolin-5-yl)piperidin-4-yl)methyl)-3-(methoxymethyl)piperazin-1-yl)cyclohexyl)-6-(2-hydroxypropan-2-yl)-2H-indazol-5-yl)pyrrolo[1,2-b]pyridazine-7-carboxamide], for which the Dmax stood at 95% at IRAK4 [1] (setting [3]) and 87% on IRAK4 [2]. Also, the DC50 on IRAK4 [1] (setting [4]) was determined as 0.9 nM; on IRAK4 [2], 5.5 nM.
For `CC(C)(O)c1cc2nn([C@H]3CC[C@H](N4CCN(C(=O)C5CN(c6ccc(C7CCC(=O)NC7=O)nc6)C5)CC4)CC3)cc2cc1NC(=O)c1ccc2cc(C#N)cnn12` (stereo partly shown) [Example 255, 3-cyano-N-(2-((1r,4r)-4-(4-(1-(6-(2,6-dioxopiperidin-3-yl)pyridin-3-yl)azetidine-3-carbonyl)piperazin-1-yl)cyclohexyl)-6-(2-hydroxypropan-2-yl)-2H-indazol-5-yl)pyrrolo[1,2-b]pyridazine-7-carboxamide], the Dmax on IRAK4 [1] (5 h treatment, read-out: IRAK4 in Karpas-299 (5 h) Dmax (%)) was determined as 96%; at IRAK4 [1] (setting [3]) it was 97%; at IRAK4 [2] it was 96%. Further, the DC50 was 2.7 nM on IRAK4 [1] (5 h treatment, read-out: IRAK4 in Karpas-299 (5 h) DC50); 1.2 nM on IRAK4 [1] (setting [4]); 7.8 nM at IRAK4 [2].
Turning to `CC(C)(O)c1cc2nn([C@H]3CC[C@H](N4CCN(C[C@@H]5CCN(c6ccc7c(c6)C(=O)N(C6CCC(=O)NC6=O)C7=O)C5)CC4)CC3)cc2cc1NC(=O)c1ccc2cc(C#N)cnn12` (stereo partly drawn) [Example 431, 3-cyano-N-(2-((1S,4r)-4-(4-(((3S)-1-(2-(2,6-dioxopiperidin-3-yl)-1,3-dioxoisoindolin-5-yl)pyrrolidin-3-yl)methyl)piperazin-1-yl)cyclohexyl)-6-(2-hydroxypropan-2-yl)-2H-indazol-5-yl)pyrrolo[1,2-b]pyridazine-7-carboxamide], the Dmax is 94% at IRAK4 [1] (setting [3]) and 95% at IRAK4 [2]. Moreover, the results for the DC50 on IRAK4 [1] (setting [4]) and on IRAK4 [2] were 1.6 nM and 8.7 nM, respectively.
